# Patent US20240246964A1 (Arbutus Biopharma Corporation, priority 2021, published 2024)
# Legend:
# [1] = target: PD-L1 His protein / PD-1 Fc protein (Homo sapiens (Human), UniProt Q9NZQ7); test: HTRF Assay (PD-1/PD-L1 interaction); type: binding; details: PD-L1 His 6 nM, PD-1 Fc 6 nM
# human PD-L1 = human PD-L1 (Homo sapiens (Human), UniProt Q9NZQ7); test: T cell activation luciferase reporter cell culture system (T Cell Activation Assay); type: cell-based; details: luciferase reporter assay; PD-L1 aAPC/CHO-K1 cells with PD-1 effector Jurkat T cells
# human PD-L1, sequence (Q9NZQ7 19-290): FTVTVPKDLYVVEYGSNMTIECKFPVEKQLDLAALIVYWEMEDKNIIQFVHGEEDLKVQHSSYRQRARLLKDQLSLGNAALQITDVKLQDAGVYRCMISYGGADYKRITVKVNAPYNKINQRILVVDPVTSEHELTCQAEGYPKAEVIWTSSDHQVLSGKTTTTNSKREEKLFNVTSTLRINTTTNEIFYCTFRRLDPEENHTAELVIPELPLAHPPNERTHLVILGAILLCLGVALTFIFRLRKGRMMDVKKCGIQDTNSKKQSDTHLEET
# PD-L1 His protein / PD-1 Fc protein, sequence (Q9NZQ7 19-238): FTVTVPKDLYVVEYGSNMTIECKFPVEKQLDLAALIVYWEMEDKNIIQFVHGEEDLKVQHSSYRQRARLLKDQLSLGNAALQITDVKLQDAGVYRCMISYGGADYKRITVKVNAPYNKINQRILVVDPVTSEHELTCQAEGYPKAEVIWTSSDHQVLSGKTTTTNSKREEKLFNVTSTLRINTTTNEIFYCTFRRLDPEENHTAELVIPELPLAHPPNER
Compound,IC50 [1] [nM],EC50 (human PD-L1) [nM]
"COc1cc(-c2nccc(-c3cccc(-c4ccc(CN5CC6(CNC(=O)C6)C5)c(OC)n4)c3Cl)c2Cl)cc2c1CN(CCC(=O)O)CC2 [Example 294, 3-(6-(3-Chloro-4-(2-chloro-3-(6-methoxy-5-((7-oxo-2,6-diazaspiro[3.4]octan-2-yl)methyl)pyridin-2-yl)phenyl)pyridin-2-yl)-8-methoxy-3,4-dihydroisoquinolin-2(1H)-yl)propanoic acid]",0.24,73.9
"COc1nc(-c2cccc(-c3ccnc(-c4ccc(CNC5CCOCC5)c(OC(F)F)c4)c3Cl)c2Cl)ccc1CN1CC2(C1)CN(C(C)=O)C2 [Example 689, 1-(6-((6-(2-Chloro-3-(3-chloro-2-(3-(difluoromethoxy)-4-(((tetrahydro-2H-pyran-4-yl)amino)methyl)phenyl)pyridin-4-yl)phenyl)-2-methoxypyridin-3-yl)methyl)-2,6-diazaspiro[3.3]heptan-2-yl)ethan-1-one]",3.33,37.4
"COc1cc(-c2nccc(-c3cccc(-c4cc(F)c(CNC[C@@H]5CCC(=O)N5)c(OC)n4)c3Cl)c2Cl)cc2c1CN(CCO)CC2 [Compound 132, (S)-5-((((6-(2-chloro-3-(3-chloro-2-(2-(2-hydroxyethyl)-8-methoxy-1,2,3,4-tetrahydroisoquinolin-6-yl)pyridin-4-yl)phenyl)-4-fluoro-2-methoxypyridin-3-yl)methyl)amino)methyl)pyrrolidin-2-one]",0.408,51.2
"COc1nc(-c2cccc(-c3ccnc(-c4cc(OC)c5nc(CNCC(C)(C)O)nn5c4)c3Cl)c2Cl)ccc1CNC1CCN(C(C)=O)CC1 [Example 714, 1-(4-(((6-(2-chloro-3-(3-chloro-2-(2-(((2-hydroxy-2-methylpropyl)amino)methyl)-8-methoxy-[1,2,4]triazolo[1,5-a]pyridin-6-yl)pyridin-4-yl)phenyl)-2-methoxypyridin-3-yl)methyl)amino)piperidin-1-yl)ethan-1-one]",0.54,249
"COc1nc(-c2cccc(-c3ccnc(-c4ccc(CNC5CCN(C(C)=O)CC5)c(OC(F)F)c4)c3Cl)c2Cl)ccc1CN1CC2(CNC(=O)C2)C1 [Example 665, 2-((6-(3-(2-(4-(((1-Acetylpiperidin-4-yl)amino)methyl)-3-(difluoromethoxy)phenyl)-3-chloropyridin-4-yl)-2-chlorophenyl)-2-methoxypyridin-3-yl)methyl)-2,6-diazaspiro[3.4]octan-7-one]",0.6,46.3
"COc1nc(-c2ccnc(-c3cccc(NC(=O)c4ccc(CNCCO)cn4)c3C)c2Cl)ccc1CNC1CCN(C(C)=O)CC1 [Example 769, N-(3-(5-(((1-Acetylpiperidin-4-yl)amino)methyl)-3′-chloro-6-methoxy-[2,4′-bipyridin]-2′-yl)-2-methylphenyl)-5-(((2-hydroxyethyl)amino)methyl)picolinamide]",0.24,60.6
"COc1nc(-c2ccnc(-c3cccc4c3CC[C@@H]4Nc3nc(OC)c(CN4CC5(CNC(=O)C5)C4)nc3C(F)(F)F)c2Cl)ccc1CN1CC2(CNC(=O)C2)C1 [Example 304, (S)-2-((3′-chloro-6-methoxy-2′-(1-((6-methoxy-5-((7-oxo-2,6-diazaspiro[3.4]octan-2-yl)methyl)-3-(trifluoromethyl)pyrazin-2-yl)amino)-2,3-dihydro-1H-inden-4-yl)-[2,4′-bipyridin]-5-yl)methyl)-2,6-diazaspiro[3.4]octan-7-one]",6.51,197
"COc1cc(-c2nccc(-c3cccc(-c4cnc(CNC5CCN(C(C)=O)CC5)c(OC)n4)c3Cl)c2Cl)ccc1CNC1CCN(C(C)=O)CC1 [Example 311, 1-(4-(((5-(3-(2-(4-(((1-Acetylpiperidin-4-yl)amino)methyl)-3-methoxyphenyl)-3-chloropyridin-4-yl)-2-chlorophenyl)-3-methoxypyrazin-2-yl)methyl)amino)piperidin-1-yl)ethan-1-one]",0.907,152
"COc1cc(-c2nccc(-c3cccc(-c4ccc5c(CNC6CCOCC6)cn(C)c5n4)c3Cl)c2Cl)ccc1CNC1CCOCC1 [Compound 563, N-((6-(2-Chloro-3-(3-chloro-2-(3-methoxy-4-(((tetrahydro-2H-pyran-4-yl)amino)methyl)phenyl)pyridin-4-yl)phenyl)-1-methyl-1H-pyrrolo[2,3-b]pyridin-3-yl)methyl)tetrahydro-2H-pyran-4-amine]",4.07,956
"COc1nc(-c2cccc(-c3ccnc(-c4ccc5c(CNC6CCN(C(C)=O)CC6)nn(C)c5c4)c3Cl)c2Cl)ccc1CNC[C@@H]1CCC(=O)N1 [Compound 167, (S)-5-((((6-(3-(2-(3-(((1-acetylpiperidin-4-yl)amino)methyl)-1-methyl-1H-indazol-6-yl)-3-chloropyridin-4-yl)-2-chlorophenyl)-2-methoxypyridin-3-yl)methyl)amino)methyl)pyridine1332ne-2-one]",1.47,18.4
"COc1nc(-c2ccnc(-c3cccc(NC(=O)c4cn(C)c(=O)n(C)c4=O)c3Cl)c2Cl)ccc1CN1CC2(C1)CN(C(C)=O)C2 [Compound 731, N-(3-(5-((6-Acetyl-2,6-diazaspiro[3.3]heptan-2-yl)methyl)-3′-chloro-6-methoxy-[2,4′-bipyridin]-2′-yl)-2-chlorophenyl)-1,3-dimethyl-2,4-dioxo-1,2,3,4-tetrahydropyrimidine-5-carboxamide]",0.9,1170
"COc1nc(-c2cccc(-c3ccnc(-c4cc(OC)c5nc(CNC(C)C)nn5c4)c3Cl)c2Cl)ccc1CNC(C)C [Compound 763, N-((6-(2-chloro-3-(3-chloro-2-(2-((isopropylamino)methyl)-8-methoxy-[1,2,4]triazolo[1,5-a]pyridin-6-yl)pyridin-4-yl)phenyl)-2-methoxypyridin-3-yl)methyl)propan-2-amine]",0.25,650
"COc1cc(-c2nccc(-c3cccc(-c4ccc(CNC5CC6(CCNC6=O)C5)c(OC)n4)c3Cl)c2Cl)ccc1CNC1CC2(CCNC2=O)C1 (stereo not shown) [Example 302, 2-((4-(3-Chloro-4-(2-chloro-3-(6-methoxy-5-(((5-oxo-6-azaspiro[3.4]octan-2-yl)amino)methyl)pyridin-2-yl)phenyl)pyridin-2-yl)-2-methoxybenzyl)amino)-6-azaspiro[3.4]octan-5-one]",1.11,23.5
"COc1cc(-c2nccc(-c3cccc(-c4ccc5c(CN(C)C6CCN(C(C)=O)CC6)cn(C)c5n4)c3Cl)c2Cl)ccc1CN1CC2(CNC(=O)C2)C1 [Compound 603, 2-(4-(4-(3-(3-(((1-Acetylpiperidin-4-yl)(methyl)amino)methyl)-1-methyl-1H-pyrrolo[2,3-b]pyridin-6-yl)-2-chlorophenyl)-3-chloropyridin-2-yl)-2-methoxybenzyl)-2,6-diazaspiro[3.4]octan-7-one]",0.52,49.7
"COc1cc(-c2nccc(-c3cccc(-c4ccc5c(CNC6CCOCC6)cn(C)c5n4)c3Cl)c2Cl)ccc1CN1CC2(CNC(=O)C2)C1 [Compound 605, 2-(4-(3-Chloro-4-(2-chloro-3-(1-methyl-3-(((tetrahydro-2H-pyran-4-yl)amino)methyl)-1H-pyrrolo[2,3-b]pyridin-6-yl)phenyl)pyridin-2-yl)-2-methoxybenzyl)-2,6-diazaspiro[3.4]octan-7-one]",0.34,636
"COc1nc(-c2cccc(-c3ccnc(-c4ccc5c(CNC6CCN(C(C)=O)CC6)nn(C)c5c4)c3Cl)c2Cl)ccc1CNC1CCN(C(C)=O)CC1 [Example 263, 1-(4-(((6-(3-(2-(3-(((1-Acetylpiperidin-4-yl)amino)methyl)-1-methyl-1H-indazol-6-yl)-3-chloropyridin-4-yl)-2-chlorophenyl)-2-methoxypyridin-3-yl)methyl)amino)piperidin-1-yl)ethan-1-one]",1.71,≥ 10000
"COc1nc(-c2cccc(-c3ccnc(-c4ccc5c(c4)S(=O)(=O)CCNC5)c3Cl)c2Cl)ccc1CNC[C@@H]1CCC(=O)N1 [Compound 177, (S)-5-((((6-(2-chloro-3-(3-chloro-2-(1,1-dioxido-2,3,4,5-tetrahydrobenzo[f][1,4]pyridine1334n-8-yl)pyridine-4-yl)phenyl)-2-methoxypyridin-3-yl)methyl)amino)methyl)pyridine1334ne-2-one]",1.76,176
"COc1nc(-c2cccc(-c3ccnc(-c4cc(OC)c5nc(CN6CC(C)(O)C6)nn5c4)c3Cl)c2Cl)ccc1CNC1CCN(C(C)=O)CC1 [Example 637, 1-(4-(((6-(2-chloro-3-(3-chloro-2-(2-((3-hydroxy-3-methylazetidin-1-yl)methyl)-8-methoxy-[1,2,4]triazolo[1,5-a]pyridin-6-yl)pyridin-4-yl)phenyl)-2-methoxypyridin-3-yl)methyl)amino)piperidin-1-yl)ethan-1-one]",0.29,116
"COc1nc(-c2cccc(-c3ccnc(-c4ccc5c(c4)N(C)CCN(C[C@H](C)O)C5)c3Cl)c2Cl)ccc1CNC[C@@H]1CCC(=O)N1 [Compound 24, (S)-5-((((6-(2-chloro-3-(3-chloro-2-(4-((S)-2-hydroxypropyl)-1-methyl-2,3,4,5-tetrahydro-1H-benzo[e][1,4]diazepin-8-yl)pyridin-4-yl)phenyl)-2-methoxypyridin-3-yl)methyl)amino)methyl)pyrrolidin-2-one]",0.8,87.2
"CNCc1ccc(-c2cccc(-c3ccnc(-c4ccc(CN5CC6(CNC(=O)C6)C5)c(OC)c4)c3Cl)c2Cl)nc1OC [Compound 213, 2-(4-(3-chloro-4-(2-chloro-3-(6-methoxy-5-((methylamino)methyl)pyridin-2-yl)phenyl)pyridin-2-yl)-2-methoxybenzyl)-2,6-diazaspiro[3.4]octan-7-one]",2.73,23.5
